For 19 compounds, EC50 and IC50 results are on record in patent publication US11459315B2, “Modulators of methyl modifying enzymes, compositions and uses thereof” (Constellation Pharmaceuticals, Inc., priority 2017, dated 2022).

Like-named read-outs stand apart in the source and are kept apart here. Bounds are passed on as bounds.

As usually defined, the EC50 is the concentration that produces a half-maximal response. By IC50 is commonly meant the concentration at which inhibition is half-maximal.

For assay [1], the system named is H3K27me3 mark in HeLa cells (EZH2). In words: H3K27me3 Alpha Hela Assay (AlphaLISA). The format is cell-based. The following applies: Homo sapiens, HeLa, 72 h, HeLa cells, 72 hrs; read-out: EZH2 Cell H3K27me3 Alpha HeLa (EC50 K27me3). In a few lines:
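HeLa cells (1,000/well) treated with ten 3-fold compound doses for 72 h at 37 °C; lysates extracted and H3K27me3 detected by AlphaLISA with anti-K27me3 acceptor beads, biotinylated anti-H3 (3 nM) and streptavidin donor beads. EC50 from DMSO-normalized dose-response curves; duplicate plate assessed viability.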
For orientation: Alpha assays give light when donor and acceptor beads are brought close together.

In another assay the target is PRC2 containing wt EZH2 (Homo sapiens (Human), UniProt Q15910). In words: EZH2 biochemical assay (IC50), 3H-SAM incorporation into biotinylated H3 peptide. Particulars: 30 pM PRC2 containing wt EZH2, 3-5 h pre-incubation. In a few lines: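 Activity was measured as ³H-methyl transfer to a biotinylated H3K27me1 peptide over 18-22 h at room temperature, with capture on streptavidin flash plates. The 30 pM wt-EZH2 PRC2 complex was first pre-incubated 3-5 h with compound, 450 nM SAM/450 nM ³H-SAM and 2 µM H3K27me3 activator (pH 8.5, 0.8% DMSO). Four-parameter fits gave IC50.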
Sequence of PRC2 containing wt EZH2 (Q15910 whole entry): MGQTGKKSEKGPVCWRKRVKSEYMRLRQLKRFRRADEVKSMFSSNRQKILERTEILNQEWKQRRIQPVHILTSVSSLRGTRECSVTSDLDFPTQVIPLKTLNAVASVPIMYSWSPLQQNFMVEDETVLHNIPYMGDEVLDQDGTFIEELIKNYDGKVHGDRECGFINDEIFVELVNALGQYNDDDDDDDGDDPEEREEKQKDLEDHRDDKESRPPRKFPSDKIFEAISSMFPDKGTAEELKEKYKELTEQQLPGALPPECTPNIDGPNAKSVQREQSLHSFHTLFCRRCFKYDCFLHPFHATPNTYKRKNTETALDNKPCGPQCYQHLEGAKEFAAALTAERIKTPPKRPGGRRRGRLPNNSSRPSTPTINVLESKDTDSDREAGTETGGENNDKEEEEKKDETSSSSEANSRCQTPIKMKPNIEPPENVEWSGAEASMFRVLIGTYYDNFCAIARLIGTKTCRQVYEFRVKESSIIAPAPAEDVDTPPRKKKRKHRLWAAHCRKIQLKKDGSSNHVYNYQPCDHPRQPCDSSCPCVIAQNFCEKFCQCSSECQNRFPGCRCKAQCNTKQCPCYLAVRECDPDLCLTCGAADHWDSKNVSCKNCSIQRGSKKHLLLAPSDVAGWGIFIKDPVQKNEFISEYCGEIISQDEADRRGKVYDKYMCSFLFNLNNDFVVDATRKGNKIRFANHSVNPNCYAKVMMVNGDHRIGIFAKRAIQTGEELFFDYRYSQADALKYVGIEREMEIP
Sequence of PRC2 containing wt EZH2 (O75530 whole entry partner): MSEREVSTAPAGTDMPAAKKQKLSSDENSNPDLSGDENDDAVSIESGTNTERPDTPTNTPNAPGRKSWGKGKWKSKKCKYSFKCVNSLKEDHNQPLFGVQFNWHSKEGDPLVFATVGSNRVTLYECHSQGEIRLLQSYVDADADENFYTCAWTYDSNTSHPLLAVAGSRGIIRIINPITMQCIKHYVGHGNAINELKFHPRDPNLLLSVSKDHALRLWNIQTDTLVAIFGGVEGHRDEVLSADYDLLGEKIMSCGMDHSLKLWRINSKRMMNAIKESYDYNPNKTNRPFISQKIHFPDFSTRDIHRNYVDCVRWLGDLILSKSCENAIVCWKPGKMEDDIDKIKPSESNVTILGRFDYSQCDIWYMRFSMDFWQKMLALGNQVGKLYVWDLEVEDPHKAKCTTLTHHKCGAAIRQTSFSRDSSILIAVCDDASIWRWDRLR
Sequence of PRC2 containing wt EZH2 (Q15022 whole entry partner): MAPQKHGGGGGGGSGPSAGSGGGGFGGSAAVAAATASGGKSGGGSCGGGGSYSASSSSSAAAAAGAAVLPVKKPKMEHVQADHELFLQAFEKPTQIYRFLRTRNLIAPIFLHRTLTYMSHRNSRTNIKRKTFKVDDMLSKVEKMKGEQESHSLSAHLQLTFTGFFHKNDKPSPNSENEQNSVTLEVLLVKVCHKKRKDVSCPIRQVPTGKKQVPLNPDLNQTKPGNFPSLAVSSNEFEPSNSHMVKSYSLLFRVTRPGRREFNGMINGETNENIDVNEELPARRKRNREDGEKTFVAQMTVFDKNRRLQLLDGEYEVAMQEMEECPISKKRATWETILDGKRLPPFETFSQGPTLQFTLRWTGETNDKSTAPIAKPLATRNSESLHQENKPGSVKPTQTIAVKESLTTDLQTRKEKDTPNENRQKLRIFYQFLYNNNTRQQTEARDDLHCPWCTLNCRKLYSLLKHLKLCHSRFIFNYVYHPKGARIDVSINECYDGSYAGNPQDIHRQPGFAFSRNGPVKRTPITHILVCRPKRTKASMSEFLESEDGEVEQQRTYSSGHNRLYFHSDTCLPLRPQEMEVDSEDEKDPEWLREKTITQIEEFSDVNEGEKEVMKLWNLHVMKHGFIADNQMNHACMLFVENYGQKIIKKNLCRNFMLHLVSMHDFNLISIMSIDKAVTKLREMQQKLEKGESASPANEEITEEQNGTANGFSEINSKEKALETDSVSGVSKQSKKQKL
Sequence of PRC2 containing wt EZH2 (Q09028 whole entry partner): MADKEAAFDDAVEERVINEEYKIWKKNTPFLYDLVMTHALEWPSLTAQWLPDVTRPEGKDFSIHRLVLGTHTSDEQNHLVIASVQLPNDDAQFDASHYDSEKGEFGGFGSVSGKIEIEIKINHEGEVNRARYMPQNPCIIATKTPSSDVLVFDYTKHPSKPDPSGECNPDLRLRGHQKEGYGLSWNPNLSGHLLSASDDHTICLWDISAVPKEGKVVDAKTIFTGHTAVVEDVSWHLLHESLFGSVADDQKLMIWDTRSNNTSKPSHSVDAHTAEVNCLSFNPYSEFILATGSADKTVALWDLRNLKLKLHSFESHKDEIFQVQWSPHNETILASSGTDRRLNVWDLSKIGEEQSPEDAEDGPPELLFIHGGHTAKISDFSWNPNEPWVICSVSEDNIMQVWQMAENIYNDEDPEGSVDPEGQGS
Sequence of PRC2 containing wt EZH2 (Q6ZN18 whole entry partner): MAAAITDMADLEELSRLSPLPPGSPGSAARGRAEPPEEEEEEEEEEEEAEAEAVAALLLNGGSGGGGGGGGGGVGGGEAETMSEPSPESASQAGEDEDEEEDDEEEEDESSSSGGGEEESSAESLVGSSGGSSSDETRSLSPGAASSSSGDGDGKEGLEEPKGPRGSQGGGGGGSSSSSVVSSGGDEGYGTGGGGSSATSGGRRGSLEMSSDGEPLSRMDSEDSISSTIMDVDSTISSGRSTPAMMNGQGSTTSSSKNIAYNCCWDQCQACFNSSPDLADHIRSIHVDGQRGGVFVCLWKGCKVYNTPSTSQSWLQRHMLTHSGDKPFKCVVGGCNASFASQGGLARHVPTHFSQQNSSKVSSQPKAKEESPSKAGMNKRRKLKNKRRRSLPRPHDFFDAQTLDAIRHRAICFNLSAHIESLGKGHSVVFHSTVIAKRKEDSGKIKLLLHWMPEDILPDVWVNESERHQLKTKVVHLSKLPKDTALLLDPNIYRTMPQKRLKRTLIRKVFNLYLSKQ

`CSc1cc(C)[nH]c(=O)c1CNC(=O)c1c(C)n([C@H](C)C2CCC(N3CC(OC(F)F)C3)CC2)c2ncncc12` (stereo partly drawn) [Example 108, 7-((R)-1-(4-(3-(difluoromethoxy)azetidin-1-yl)cyclohexyl)ethyl)-6-methyl-N-((6-methyl-4-(methylthio)-2-oxo-1,2-dihydropyridin-3-yl)methyl)-7H-pyrrolo[2,3-d]pyrimidine-5-carboxamide]: the EC50 in assay [1] was less than 10 nM. Besides, on PRC2 containing wt EZH2 (read-out: EZH2 (IC50)), the concentration for half-maximal inhibition (IC50) is less than 0.5 nM.
With `Cc1cc(SC2CCC2)c(CNC(=O)c2c(C)n([C@H](C)C3CCN(CC(F)(F)F)CC3)c3ccccc23)c(=O)[nH]1` [Example 109, (R)-N-((4-(cyclobutylthio)-6-methyl-2-oxo-1,2-dihydropyridin-3-yl)methyl)-2-methyl-1-(1-(1-(2,2,2-trifluoroethyl)piperidin-4-yl)ethyl)-1H-indole-3-carboxamide], the EC50 in assay [1] was 10 to 100 nM. Also, the concentration for half-maximal inhibition (IC50) on PRC2 containing wt EZH2 (read-out: EZH2 (IC50)) was less than 0.5 nM.
With `CSc1cc(C)[nH]c(=O)c1CNC(=O)c1c(C)n([C@H](C)C2CCC(N3CC(C(F)(F)F)C3)CC2)c2ncccc12` (stereo partly drawn) [Example 110, 2-methyl-N-((6-methyl-4-(methylthio)-2-oxo-1,2-dihydropyridin-3-yl)methyl)-1-((R)-1-(4-(3-(trifluoromethyl)azetidin-1-yl)cyclohexyl)ethyl)-1H-pyrrolo[2,3-b]pyridine-3-carboxamide], the EC50 in assay [1] fell in the range of 10 to 100 nM. Further, the IC50 on PRC2 containing wt EZH2 (read-out: EZH2 (IC50)) is less than 0.5 nM.
For the compound `CSc1cc(C)[nH]c(=O)c1CNC(=O)c1c(C)n([C@H](C)C2CCC(N3CCC(OC4CC4)C3)CC2)c2ncccc12` (stereo partly drawn) [Example 111, 1-((1R)-1-(4-(3-cyclopropoxypyrrolidin-1-yl)cyclohexyl)ethyl)-2-methyl-N-((6-methyl-4-(methylthio)-2-oxo-1,2-dihydropyridin-3-yl)methyl)-1H-pyrrolo[2,3-b]pyridine-3-carboxamide], in assay [1], the EC50 fell in the range of 10 to 100 nM. The IC50 on PRC2 containing wt EZH2 (read-out: EZH2 (IC50)) was less than 0.5 nM.
In the same order, the values of `CSc1cc(C)[nH]c(=O)c1CNC(=O)c1c(C)n([C@H](C)C2CCN(CC(F)(F)F)CC2)c2cccc(C(F)F)c12` [Example 114, (R)-4-(difluoromethyl)-2-methyl-N-((6-methyl-4-(methylthio)-2-oxo-1,2-dihydropyridin-3-yl)methyl)-1-(1-(1-(2,2,2-trifluoroethyl)piperidin-4-yl)ethyl)-1H-indole-3-carboxamide] are greater than 100 nM and greater than 5 nM.
On the same counts, the results for `CSc1cc(C)[nH]c(=O)c1CNC(=O)c1c(C)n([C@H](C)C2CCC(N3CC(OC(F)F)C3)CC2)c2ncc(C)cc12` (stereo partly drawn) [Example 115, 1-((R)-1-(4-(3-(difluoromethoxy)azetidin-1-yl)cyclohexyl)ethyl)-2,5-dimethyl-N-((6-methyl-4-(methylthio)-2-oxo-1,2-dihydropyridin-3-yl)methyl)-1H-pyrrolo[2,3-b]pyridine-3-carboxamide] are less than 10 nM and less than 0.5 nM.
Regarding `CSc1cc(C)[nH]c(=O)c1CNC(=O)c1c(C)n([C@H](C)C2CCC(N3CC(OCC(F)F)C3)CC2)c2ncccc12` (stereo partly drawn) [Example 116, 1-((R)-1-(4-(3-(2,2-difluoroethoxy)azetidin-1-yl)cyclohexyl)ethyl)-2-methyl-N-((6-methyl-4-(methylthio)-2-oxo-1,2-dihydropyridin-3-yl)methyl)-1H-pyrrolo[2,3-b]pyridine-3-carboxamide], the EC50 in assay [1] is less than 10 nM. Further, at PRC2 containing wt EZH2 (read-out: EZH2 (IC50)), the IC50 is less than 0.5 nM.
For `CC[C@@H](C1CCC(N2CC(OC(F)F)C2)CC1)n1c(C)c(C(=O)NCc2c(SC)cc(C)[nH]c2=O)c2cccnc21` (stereo partly drawn) [Example 117, 1-((S)-1-(4-(3-(difluoromethoxy)azetidin-1-yl)cyclohexyl)propyl)-2-methyl-N-((6-methyl-4-(methylthio)-2-oxo-1,2-dihydropyridin-3-yl)methyl)-1H-pyrrolo[2,3-b]pyridine-3-carboxamide], in assay [1], the concentration giving a half-maximal response (EC50) lay in the range of 10 to 100 nM. Besides, the IC50 on PRC2 containing wt EZH2 (read-out: EZH2 (IC50)) lay within 0.5 to 5 nM.
On the same counts, the results for `CC[C@H](C1CCC(N2CC(OC(F)F)C2)CC1)n1c(C)c(C(=O)NCc2c(SC)cc(C)[nH]c2=O)c2cccnc21` (stereo partly drawn) [Example 118, 1-((R)-1-(4-(3-(difluoromethoxy)azetidin-1-yl)cyclohexyl)propyl)-2-methyl-N-((6-methyl-4-(methylthio)-2-oxo-1,2-dihydropyridin-3-yl)methyl)-1H-pyrrolo[2,3-b]pyridine-3-carboxamide] are less than 10 nM and less than 0.5 nM.
As for `CSc1cc(C)[nH]c(=O)c1CNC(=O)c1c(C)n([C@H](C)C2CCC(N3CC[C@@H](OC(F)F)C3)CC2)c2ncccc12` (stereo partly drawn) [Example 119, 1-((R)-1-(4-((R)-3-(difluoromethoxy)pyrrolidin-1-yl)cyclohexyl)ethyl)-2-methyl-N-((6-methyl-4-(methylthio)-2-oxo-1,2-dihydropyridin-3-yl)methyl)-1H-pyrrolo[2,3-b]pyridine-3-carboxamide], in assay [1], the EC50 was less than 10 nM. Besides, the IC50 at PRC2 containing wt EZH2 (read-out: EZH2 (IC50)) is less than 0.5 nM.
In the same order, the values of `CSc1cc(C)[nH]c(=O)c1CNC(=O)c1c(C)n([C@H](C)C2CCC(N3CC[C@H](OC(F)F)C3)CC2)c2ncccc12` (stereo partly drawn) [Example 120, 1-((R)-1-(4-((S)-3-(difluoromethoxy)pyrrolidin-1-yl)cyclohexyl)ethyl)-2-methyl-N-((6-methyl-4-(methylthio)-2-oxo-1,2-dihydropyridin-3-yl)methyl)-1H-pyrrolo[2,3-b]pyridine-3-carboxamide] are 10 to 100 nM and less than 0.5 nM.
In the same order, the values of `CSc1cc(C)[nH]c(=O)c1CNC(=O)c1c(C)n([C@H](C)C2CCC(N3CC(OC(F)F)C3)CC2)c2ncc(F)cc12` (stereo partly drawn) [Example 122, 1-((R)-1-(4-(3-(difluoromethoxy)azetidin-1-yl)cyclohexyl)ethyl)-5-fluoro-2-methyl-N-((6-methyl-4-(methylthio)-2-oxo-1,2-dihydropyridin-3-yl)methyl)-1H-pyrrolo[2,3-b]pyridine-3-carboxamide] are less than 10 nM and less than 0.5 nM.
On the same counts, the results for `CSc1cc(C)[nH]c(=O)c1CNC(=O)c1c(C)n([C@H](C)C2CCC(N3CC(OC4CC4)C3)CC2)c2ncc(Cl)cc12` (stereo partly drawn) [Example 124, 5-chloro-1-((R)-1-(4-(3-cyclopropoxyazetidin-1-yl)cyclohexyl)ethyl)-2-methyl-N-((6-methyl-4-(methylthio)-2-oxo-1,2-dihydropyridin-3-yl)methyl)-1H-pyrrolo[2,3-b]pyridine-3-carboxamide] are less than 10 nM and less than 0.5 nM.
`CSc1cc(C)[nH]c(=O)c1CNC(=O)c1c(C)n([C@H](C)C2CCC(N3CC(OC4CCC4)C3)CC2)c2ncc(Cl)cc12` (stereo partly drawn) [Example 126, 5-chloro-1-((R)-1-(4-(3-cyclobutoxyazetidin-1-yl)cyclohexyl)ethyl)-2-methyl-N-((6-methyl-4-(methylthio)-2-oxo-1,2-dihydropyridin-3-yl)methyl)-1H-pyrrolo[2,3-b]pyridine-3-carboxamide]: the EC50 in assay [1] was less than 10 nM. Further, the IC50 on PRC2 containing wt EZH2 (read-out: EZH2 (IC50)) was less than 0.5 nM.
For `CSc1cc(C)[nH]c(=O)c1CNC(=O)c1c(C)n([C@H](C)C2CCN(CC(F)(F)F)CC2)c2cc(Br)ccc12` [Example 127, (R)-6-bromo-2-methyl-N-((6-methyl-4-(methylthio)-2-oxo-1,2-dihydropyridin-3-yl)methyl)-1-(1-(1-(2,2,2-trifluoroethyl)piperidin-4-yl)ethyl)-1H-indole-3-carboxamide], the EC50 in assay [1] was in the range of 10 to 100 nM. The compound also displayed an IC50 on PRC2 containing wt EZH2 (EZH2 (IC50)) of less than 0.5 nM.
On the same counts, the results for `CSc1cc(C)[nH]c(=O)c1CNC(=O)c1c(C)n([C@H](C)C2CCN(CC(F)(F)F)CC2)c2cccc(Br)c12` [Example 128, (R)-4-bromo-2-methyl-N-((6-methyl-4-(methylthio)-2-oxo-1,2-dihydropyridin-3-yl)methyl)-1-(1-(1-(2,2,2-trifluoroethyl)piperidin-4-yl)ethyl)-1H-indole-3-carboxamide] are 10 to 100 nM and 0.5 to 5 nM.
For the compound `CSc1cc(C)[nH]c(=O)c1CNC(=O)c1c(C)n([C@H](C)C2CCC(N3CC(OC(C)(C)C)C3)CC2)c2ncc(Cl)cc12` (stereo partly drawn) [Example 129, 1-((R)-1-(4-(3-(tert-butoxy)azetidin-1-yl)cyclohexyl)ethyl)-5-chloro-2-methyl-N-((6-methyl-4-(methylthio)-2-oxo-1,2-dihydropyridin-3-yl)methyl)-1H-pyrrolo[2,3-b]pyridine-3-carboxamide], the EC50 in assay [1] is less than 10 nM. Besides, the IC50 at PRC2 containing wt EZH2 (read-out: EZH2 (IC50)) was less than 0.5 nM.
Turning to `CSc1cc(C)[nH]c(=O)c1CNC(=O)c1c(C)n([C@H](C)C2CCN(C3(C)CC3)CC2)c2ncccc12` [Example 131, (R)-2-methyl-N-((6-methyl-4-(methylthio)-2-oxo-1,2-dihydropyridin-3-yl)methyl)-1-(1-(1-(1-methylcyclopropyl)piperidin-4-yl)ethyl)-1H-pyrrolo[2,3-b]pyridine-3-carboxamide], in assay [1], the concentration for a half-maximal effect (EC50) is less than 10 nM. On PRC2 containing wt EZH2 (EZH2 (IC50)), this compound returned an IC50 of less than 0.5 nM.
On the same counts, the results for `CSc1cc(C)[nH]c(=O)c1CNC(=O)c1c(C)n([C@H](C)C2CCC(OC3CC3)CC2)c2ccccc12` (stereo partly drawn) [Example 132, 1-((R)-1-(4-cyclopropoxycyclohexyl)ethyl)-2-methyl-N-((6-methyl-4-(methylthio)-2-oxo-1,2-dihydropyridin-3-yl)methyl)-1H-indole-3-carboxamide] are less than 10 nM and less than 0.5 nM.
